The target in data set [1] is T1, hsHDAC8 (Homo sapiens, UniProt Q9BY41).
T1 construct: made in house
T1 sequence (Q9BY41 1-377): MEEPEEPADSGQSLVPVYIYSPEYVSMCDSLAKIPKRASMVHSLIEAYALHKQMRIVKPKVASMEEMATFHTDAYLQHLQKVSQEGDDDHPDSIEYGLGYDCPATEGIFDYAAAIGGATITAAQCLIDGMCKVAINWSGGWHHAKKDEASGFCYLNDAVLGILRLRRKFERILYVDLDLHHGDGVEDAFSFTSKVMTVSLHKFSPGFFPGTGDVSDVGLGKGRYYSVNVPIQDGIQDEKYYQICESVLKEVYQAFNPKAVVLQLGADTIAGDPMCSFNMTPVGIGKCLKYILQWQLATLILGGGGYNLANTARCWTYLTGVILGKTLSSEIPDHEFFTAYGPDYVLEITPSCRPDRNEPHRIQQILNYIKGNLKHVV
More on the design: method as in PMID 19007204. The note with it: cited from earlier work.

Another data set has as its target T2, smHDAC8 (Schistosoma mansoni, UniProt A5H660).
T2 construct: made in house; host or cells: E. coli
T2 sequence (A5H660 1-440): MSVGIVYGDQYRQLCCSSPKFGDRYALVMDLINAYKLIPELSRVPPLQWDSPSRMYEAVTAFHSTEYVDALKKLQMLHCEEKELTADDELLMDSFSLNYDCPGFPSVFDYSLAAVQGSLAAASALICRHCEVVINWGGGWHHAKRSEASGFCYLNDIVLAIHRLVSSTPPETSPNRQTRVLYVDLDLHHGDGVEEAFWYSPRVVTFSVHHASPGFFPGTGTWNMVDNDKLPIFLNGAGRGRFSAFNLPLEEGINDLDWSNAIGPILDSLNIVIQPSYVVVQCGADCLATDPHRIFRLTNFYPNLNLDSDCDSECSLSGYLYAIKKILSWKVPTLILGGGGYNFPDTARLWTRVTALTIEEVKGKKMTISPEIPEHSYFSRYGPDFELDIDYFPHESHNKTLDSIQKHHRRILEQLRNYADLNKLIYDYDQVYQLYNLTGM
Description: biochemical. In kind it is biochemical. As to conditions: for inhibition at 10 µM: pretest n=1, read-out: smHDAC8 (% inhibition, Fluor de Lys).

Data set [2] has as its target T1, hsHDAC8. Description: In vitro hsHDAC8 inhibition, homogeneous fluorescence assay (Fluor de Lys substrate). In kind it is biochemical. As to conditions: n=2; mean ± S.E.M.
Data set [3] concerns the target T3, hsHDAC1 (Homo sapiens, UniProt Q13547). More on the design: method as in PMID 19007204. The note with it: cited from earlier work.
For data set [4], the target named is T3, hsHDAC1. Description: In vitro hsHDAC1 inhibition (ZMAL substrate, trypsin developer). As to conditions: read-out: hsHDAC1 (% inhibition, ZMAL). In kind it is biochemical.
A further data set has as its target T4, hsHDAC6 (Homo sapiens, UniProt Q9UBN7).
T4 sequence (Q9UBN7 1-1215): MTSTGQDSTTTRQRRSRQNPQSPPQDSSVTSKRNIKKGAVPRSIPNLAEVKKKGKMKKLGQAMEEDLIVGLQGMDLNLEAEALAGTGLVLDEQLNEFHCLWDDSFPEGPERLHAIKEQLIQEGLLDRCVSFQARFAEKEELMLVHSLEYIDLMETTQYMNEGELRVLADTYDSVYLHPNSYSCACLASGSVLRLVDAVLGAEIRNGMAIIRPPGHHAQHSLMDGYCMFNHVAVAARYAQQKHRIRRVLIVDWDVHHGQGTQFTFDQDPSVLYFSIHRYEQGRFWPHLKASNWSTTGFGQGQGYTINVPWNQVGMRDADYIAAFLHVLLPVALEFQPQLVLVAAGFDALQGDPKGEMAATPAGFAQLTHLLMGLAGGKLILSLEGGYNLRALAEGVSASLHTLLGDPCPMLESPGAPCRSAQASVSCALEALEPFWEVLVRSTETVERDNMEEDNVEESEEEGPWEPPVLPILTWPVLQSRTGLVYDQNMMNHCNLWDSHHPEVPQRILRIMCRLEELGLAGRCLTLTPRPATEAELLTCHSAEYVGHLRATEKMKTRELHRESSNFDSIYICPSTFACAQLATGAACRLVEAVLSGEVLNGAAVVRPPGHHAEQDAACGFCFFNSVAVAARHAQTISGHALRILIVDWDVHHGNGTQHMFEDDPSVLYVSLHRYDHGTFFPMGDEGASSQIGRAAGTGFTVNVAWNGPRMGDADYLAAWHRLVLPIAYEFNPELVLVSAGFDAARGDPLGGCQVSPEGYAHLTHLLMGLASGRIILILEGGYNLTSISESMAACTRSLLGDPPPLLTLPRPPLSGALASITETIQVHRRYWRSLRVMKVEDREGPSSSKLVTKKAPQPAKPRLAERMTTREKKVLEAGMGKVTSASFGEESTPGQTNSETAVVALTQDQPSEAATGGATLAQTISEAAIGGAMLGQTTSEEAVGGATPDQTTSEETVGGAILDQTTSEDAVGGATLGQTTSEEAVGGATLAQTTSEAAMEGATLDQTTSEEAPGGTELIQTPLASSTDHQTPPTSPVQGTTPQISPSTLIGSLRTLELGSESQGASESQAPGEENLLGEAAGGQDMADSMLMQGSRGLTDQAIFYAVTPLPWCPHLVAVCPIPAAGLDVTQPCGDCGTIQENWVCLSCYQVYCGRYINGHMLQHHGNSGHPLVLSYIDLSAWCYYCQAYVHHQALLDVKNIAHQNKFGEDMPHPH
Description: In vitro hsHDAC6 inhibition (ZMAL substrate, trypsin developer). In kind it is biochemical.

Data set [5] concerns the target T3, hsHDAC1. More on the design: method as in PMID 24086136, PMID 26013035. The note with it: @ 10 μM; SAHA row of Table 3; cited from earlier work.

As a reminder, the IC50 is the midpoint of a concentration-inhibition curve. Read a high IC50 as weaker potency in that assay. By inhibition is commonly meant the relative decrease from the control value, in per cent. A word on the melting point: it is the temperature, or range, at which the solid turns liquid.

Read-outs that look alike come from different tables or passages of the source.

T3 sequence (Q13547 whole entry): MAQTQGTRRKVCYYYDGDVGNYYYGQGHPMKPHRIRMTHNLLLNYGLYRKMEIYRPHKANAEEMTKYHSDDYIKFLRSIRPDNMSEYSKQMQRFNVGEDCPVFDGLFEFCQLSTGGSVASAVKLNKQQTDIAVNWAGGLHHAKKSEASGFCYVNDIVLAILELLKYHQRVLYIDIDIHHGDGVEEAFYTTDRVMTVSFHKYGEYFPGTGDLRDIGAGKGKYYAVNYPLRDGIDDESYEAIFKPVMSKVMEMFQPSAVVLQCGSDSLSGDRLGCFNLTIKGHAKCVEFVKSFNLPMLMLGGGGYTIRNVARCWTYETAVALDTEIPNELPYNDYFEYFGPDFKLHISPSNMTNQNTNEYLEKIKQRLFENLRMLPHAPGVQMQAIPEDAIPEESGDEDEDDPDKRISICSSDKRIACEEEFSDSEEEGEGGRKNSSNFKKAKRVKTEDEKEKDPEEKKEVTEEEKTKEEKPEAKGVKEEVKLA

As for `O=C(NO)c1cn(CCc2ccccc2)nn1` [Compound 2 f], the melting point came out at 178 °C. Also, the “inhibition of hsHDAC8 (in words)” value on hsHDAC8 [1] is “weakly inhibit”. On smHDAC8, the concentration for half-maximal inhibition (IC50) worked out at 10.7 ± 1.88 µM and the inhibition at 10 µM is 49.5%. The IC50 at hsHDAC8 [2] stood at 5.54 ± 0.64 µM. Moreover, on hsHDAC1 [3], the “inhibition of hsHDAC1 (in words)” value is on record as “weakly inhibit”. For the same compound, the inhibition at 10 µM on hsHDAC1 [4] (@ 10 μM) was 1.7 ± 3.4%. On hsHDAC6 (@ 10 μM), the inhibition at 10 µM came to 12.6 ± 9.6%.
`O=C(NO)c1cn(CCCc2ccccc2)nn1` [Compound 2 g] yielded a melting point of 182 °C. Also, the “inhibition of hsHDAC8 (in words)” value on hsHDAC8 [1] is reported as “weakly inhibit”. Also, on smHDAC8, inhibition was half-maximal at 8.81 ± 1.89 µM (IC50) and the inhibition at 10 µM came out at 50.5%. The same compound gave an IC50 on hsHDAC8 [2] of 5.37 ± 0.68 µM. Moreover, on hsHDAC1 [3], the “inhibition of hsHDAC1 (in words)” value is recorded as “weakly inhibit”. Moreover, the inhibition at 10 µM at hsHDAC1 [4] (@ 10 μM) amounted to 5.4 ± 7%. In addition, inhibition against hsHDAC6 (n=2, mean ± S.E.M.) was half-maximal at 31.8 ± 6.18 µM (IC50).
Take `O=C(CCCCCCC(=O)Nc1ccccc1)NO` [SAHA (1), SAHA, reference compound]: the inhibition at 10 µM was found to be 72% on smHDAC8 and 97.3 ± 1.3% at hsHDAC1 [4]. Further, on hsHDAC1 [5], the “hsHDAC1 % inhibition (ZMAL)” value was 0.117±0.0056 97.3±1.3 % @ 10 μM.

Source of the values: PMC7187165, “Structure‐Based Design, Synthesis, and Biological Evaluation of Triazole‐Based smHDAC8 Inhibitors” (Chemmedchem, 2020).
